In publication PMC6754136 (PLoS ONE, 2019):

How the values were obtained:
[1] = biological target: T1, partially purified recombinant human PDE6C (Homo sapiens, UniProt P51160); assay: PDE6C inhibition assay (GMP production); assay type: biochemical
T1 construct: partially purified recombinant full-length human PDE6C; purchased SB Drug Discovery; host or cells: insect cells
Description: PDE6C inhibition was measured using the same method as described for PDE5 with modifications. […] The final reaction volume was 50 μL. […] Reactions were stopped as described above for PDE5 enzyme assays, and GMP was quantified as described above. […] The amount of GMP produced in these samples was subtracted from all samples before normalizing against untreated controls.

[2] = biological target: purified recombinant human PDE5 (Homo sapiens, UniProt O76074); assay: in vitro PDE5 inhibition assay measuring GMP production from cGMP (HPLC-UV-MS); assay type: biochemical; conditions: 1 nM PDE5 catalytic domain, 0.3 μM cGMP, 25 °C, 15 min; mean of at least three replicates ± SEM; read-out: IC50
Description: STRENDA guidelines were considered in the description of the following enzyme activity assays. PDE5 inhibition and kinetics assays were carried out according to the method of Kincaid and Manganiello [31] and Dell’Agli et al. 1 nM recombinant human PDE5 (catalytic domain consisting of amino acids 537–875, Abcam, ab125581) was pre-incubated with PDE5 inhibitors (synthesized in-house as described above or purchased from Selleck Chemicals) in 40 mM tris-hydrochloric acid, pH 7.8, containing 10 mM MgCl2. […]. PDE5 inhibitors were added to each reaction using a Hewlett-Packard D300 Digital Dispenser (Tecan). Maximum DMSO concentration was 0.1% of the final reaction volume for all samples. After incubation at 25 °C for 5 minutes to allow interaction between PDE5 and drugs, the reaction was started with the addition of 0.3 μM cGMP (Enzo Life Sciences, Inc.) and incubated at 25 °C for 15 minutes. The final reaction volume was 100 μL. Reactions were stopped with the addition of 100 μL of 0.1 M HCl and neutralized by adding 0.1 M NaOH until the pH was 7. […] The amount of GMP produced was measured by HPLC-UV-MS as described in the general procedures. Reaction mixture components were separated with a ramp gradient of solvent A and B run at a flow rate of 0.5 mL/min as follows: 0–4 minutes 0% B, 4–7 minutes 0–95% B, 7–8 minutes 95% B, 8–11.1 minutes 0% B. GMP was measured using selected reaction monitoring in positive mode for a centroid center mass of 152.
A calibration curve using known concentrations of GMP was generated using the HPLC-UV-MS method described above to quantify the absolute amount of GMP in each reaction (S13 Fig). The linear range was from 5.9 nM to 3 μM. The limit of detection (LOD), defined as the lowest concentration producing a detectable peak above background, was 0.1 nM. The lower limit of quantification (LLOQ), defined as the lowest concentration used to generate a standard curve with r^2 > 0.95, was 5.9 nM. The upper limit of quantification (ULOQ), defined as the highest concentration used to generate a standard curve with r^2 > 0.95, was 3 μM. A GMP calibration curve was generated with each individual run of the HPLC-UV-MS.
To measure the IC50 as a result of treatment with each icariin analog, the in vitro inhibition enzyme assay as described above was performed, and GMP levels were normalized to no-drug controls and multiplied by 100 to obtain the percent PDE5 activity. IC50 mean ± SEM values were determined by nonlinear-regression fitting of the percent PDE5 activity data using the [inhibitor] vs response–variable slope (four parameters) equation in Prism (version 7.0a and version 8). Top value was constrained to 100, all other parameters were unconstrained. To obtain the dose-response curves for visual confirmation of the best-fit line, we executed a nonlinear regression fitting using the log(inhibitor) vs. response—variable slope (four parameters) equation in Prism. […] AICc analysis (built into Prism) was used to confirm the best-fitting inhibition model. […] Inhibition models were also compared via visual inspection of the fit of the calculated curves on the Michaelis-Menten plots.

BJ-hTERT cells = assay: cellular GMP levels after inhibitor treatment; assay type: cell-based, human; conditions: 20 μM inhibitor, 1 hour; mean ± SEM; p<0.001
Description: For assaying PDE5 inhibitor effects on GMP levels in a cell line, BJ-hTERT cells were plated in 6-well plates (Corning) in the media described above. When cells were 80% confluent, fresh, pre-warmed media with DMSO (untreated controls) or 20 μM sildenafil, 3, or 7 was added and incubated for 1 hour. Maximum DMSO concentration in all samples was 0.2% of the total well volume. Cells were washed once with cold 0.9% NaCl. 800 μL of 80:20 methanol:water spiked with 500 nM isotopically labeled amino acids as internal standards was added while cells were on dry ice. Cells were detached with a cell scraper. Extracts were vortexed for 10 minutes and centrifuged at maximum speed at 4 °C to remove debris. Extracts were dried down in a vacuum dryer and stored at -80 °C. An additional sample was reserved for visual inspection of cell health by confocal light microscopy and for cell counting with a hemocytometer. Three independent assays were conducted in total, with 1–2 replicates per assay. To analyze GMP levels, samples were reconstituted in 50 μL LC-MS grade water and analyzed by HPLC-UV-MS as described in the general procedures and for enzyme inhibition and kinetics assays. The amino acid standards were analyzed in full scan positive mode with mass windows m/z 50–800. GMP peak areas were normalized to the peak area of the internal standard ^13C4, ^15N-threonine or ^13C6, ^15N3-histidine to account for variations in extraction or resuspension volume. The peak areas were then normalized to the average GMP peak area in undrugged controls and multiplied by 100 to obtain the percent GMP.

T1 sequence (P51160 whole entry): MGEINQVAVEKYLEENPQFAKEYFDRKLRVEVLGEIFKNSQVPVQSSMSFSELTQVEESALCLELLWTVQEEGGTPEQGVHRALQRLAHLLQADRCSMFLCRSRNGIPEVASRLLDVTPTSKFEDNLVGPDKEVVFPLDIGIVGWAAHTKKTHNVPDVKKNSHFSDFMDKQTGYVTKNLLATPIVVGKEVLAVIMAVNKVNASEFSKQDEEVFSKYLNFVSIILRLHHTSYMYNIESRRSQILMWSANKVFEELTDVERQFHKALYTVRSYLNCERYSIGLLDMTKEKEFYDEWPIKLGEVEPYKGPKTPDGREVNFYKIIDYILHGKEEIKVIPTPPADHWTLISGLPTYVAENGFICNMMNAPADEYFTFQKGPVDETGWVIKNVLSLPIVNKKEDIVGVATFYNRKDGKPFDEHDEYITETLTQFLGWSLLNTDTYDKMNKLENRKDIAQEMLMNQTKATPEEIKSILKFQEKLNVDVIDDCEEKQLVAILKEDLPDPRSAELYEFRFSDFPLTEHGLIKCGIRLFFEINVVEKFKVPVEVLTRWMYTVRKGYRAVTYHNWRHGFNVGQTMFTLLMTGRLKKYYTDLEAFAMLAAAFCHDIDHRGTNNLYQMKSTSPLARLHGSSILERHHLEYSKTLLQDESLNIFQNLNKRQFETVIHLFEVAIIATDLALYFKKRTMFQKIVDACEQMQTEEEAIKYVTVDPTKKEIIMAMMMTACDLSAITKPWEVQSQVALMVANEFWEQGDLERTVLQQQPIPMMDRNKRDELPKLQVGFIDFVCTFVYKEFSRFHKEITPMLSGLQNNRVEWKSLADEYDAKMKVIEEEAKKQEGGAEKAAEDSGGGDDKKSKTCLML

specificity for PDE5 over PDE6C [1]: does not show this specificity
PDE6C inhibition, statistical significance ([1]; at 50x the PDE5 IC50, vs theoretical uninhibited mean of 100%): significantly inhibits PDE6C activity
IC50 [2]: 0.14 ± 0.06 µM
SMILES: COc1ccc(-c2oc3c(CC=C(C)C)c(O)cc(O)c3c(=O)c2OCCCO)cc1 [Compound 7, 3-O-(3-Hydroxypropyl)-Icaritin]
cellular GMP concentration, % of the GMP concentration in untreated control cells (BJ-hTERT cells): 13 ± 2%
